# Measurements from publication PMC6454892 (Nature chemistry, 2018).
# System: A. baumannii
# Assay: MIC screening against A. baumannii
# Format: cell-based
# Settings: tested separately, unconjugated
smiles,measurement,value
CN[C@H](CC(C)C)C(=O)N[C@H]1C(=O)N[C@@H](CC(N)=O)C(=O)N[C@H]2C(=O)N[C@H]3C(=O)N[C@H](C(=O)N[C@H](C(=O)O)c4cc(O)cc(O)c4-c4cc3ccc4O)[C@H](O)c3ccc(c(Cl)c3)Oc3cc2cc(c3O[C@@H]2O[C@H](CO)[C@@H](O)[C@H](O)[C@H]2O[C@H]2C[C@](C)(N)[C@H](O)[C@H](C)O2)Oc2ccc(cc2Cl)[C@H]1O [vancomycin],efficacy against A. baumannii (in words),ineffective
